Reference: publication PMC9574929, “Development of Hydrogen Sulfide-Releasing Carbonic Anhydrases IX- and XII-Selective Inhibitors with Enhanced Antihyperalgesic Action in a Rat Model of Arthritis” (Journal of Medicinal Chemistry, 2022)
Values joined by “and” are separate entries in the source; they are usually repeats but may differ in a detail not shown here. Equal entries are not always repeated. “Also recorded” adds a separate entry of the source.

What was measured:
[1] = tested on: rat model of arthritis induced by the intra-articular injection of complete Freund's adjuvant (CFA); assay: Paw pressure test, CFA-induced arthritis; assay type: in vivo; conditions: for antihyperalgesic effect, Paw pressure test, 1 mg/kg: 1 mg/kg per os; for weight tolerated on the ipsilateral paw, Paw pressure test, 10 and 30 mg/kg: 10 and 30 mg/kg per os, from 15 min up to 45 min after treatment, vs CFA-treated animals
Method: (§1) Articular damage was induced by injection of Complete Freund’s Adjuvant (CFA; Sigma-Aldrich, St Louis, MO, USA), containing 1 mg/mL of heat-killed and dried Mycobacterium tuberculosis in paraffin oil and mannide monooleate, into the tibiotarsal joint.[50] Briefly, the rats were lightly anesthetized with 2% isoflurane, the left leg skin was sterilized with 75% ethyl alcohol, and the lateral malleolus was located by palpation. A 28-gauge needle was then inserted vertically to penetrate the skin and turned distally for insertion into the articular cavity at the gap between the tibiofibular and tarsal bone until a distinct loss of resistance was felt. A volume of 50 μL of CFA was then injected (day 0). Control rats received 50 μL of saline solution (day 0) in the tibiotarsal joint.
(§2) The hybrid derivatives 26, 29, 30, and 31 (1, 10, and 30 mg/kg) were suspended in a 1% solution of carboxymethylcellulose (CMC) sodium salt and acutely per os administered starting from day 14 after CFA i.a. injection, when arthritis was well established. The H2S releaser 3 and CAI 15 were also administered alone or in coadministration at the equimolar dose of compound 30 30 mg/kg (13.23 and 17.71 mg/kg, respectively). The antihypersensitivity effects were evaluated over time by the Paw pressure and Incapacitance tests.
The nociceptive threshold of rats was determined with an analgesimeter (Ugo Basile, Varese, Italy), according to the method described by Leighton et al.[51] and Maresca et al.,[52] (doi: 10.1111/jphp.12828). Briefly, a constantly increasing pressure was applied to a small area of the dorsal surface of the hind paw using a blunt conical probe by a mechanical device. Mechanical pressure was increased until vocalization or a withdrawal reflex occurred while rats were lightly restrained. Vocalization or withdrawal reflex thresholds were expressed in grams. […]

hCA IV = hCA IV (Homo sapiens, UniProt P22748); assay: Stopped-flow CO2 hydrase assay, hCA IV; conditions: selectivity index, ratio of KIs
Method: (§3) The uncatalyzed rates were determined in the same manner and subtracted from the total observed rates. Stock solutions of inhibitor (0.1 mM) were prepared in distilled-deionized water and dilutions up to 0.01 nM were done thereafter with the assay buffer. […] The inhibition constants were obtained by nonlinear least-squares methods using PRISM 3 and the Cheng–Prusoff equation, as reported earlier,[39] and represent the mean from at least three different determinations.

[2] = tested on: rat model of arthritis induced by the intra-articular injection of complete Freund's adjuvant (CFA); assay: Incapacitance test, CFA-induced arthritis; assay type: in vivo; conditions: for reduction of spontaneous pain, Incapacitance test: single per os, 1 to 30 mg/kg, day 14 after CFA
Method: as §1, §2
Weight-bearing changes were measured using an incapacitance apparatus (Linton Instrumentation, Norfolk, U.K.) to detect changes in postural equilibrium after a hind limb injury.[53],[54] Rats were trained to stand on their hind paws in a box with an inclined plane (65° from horizontal). This box was placed above the incapacitance apparatus. This allowed us to independently measure the weight that the animal applied on each hind limb. The value reported for each animal is the mean of five consecutive measurements. In the absence of hind limb injury, rats applied an equal weight on both hind limbs, indicating postural equilibrium, whereas an unequal distribution of weight on the hind limbs indicated a monolateral decreased pain threshold. Data are expressed as the difference between the weight applied to the limb contralateral to the injury and the weight applied to the ipsilateral limb (Δ weight).

rats = assay: Toxicity and Irwin test; assay type: in vivo, rat; parameters: key to Irwin test: Spontaneous activity / Irwin test: Straightening reflex / Irwin test: Hypo-hyperthermia / Irwin test: Cleaning / Irwin test: Curiosity / Irwin test: Reactivity / Irwin test: Convulsions: observer's semiquantitative score (0 to +4, −4 to 0, or −4 to +4); conditions: 30 mg/kg; for Irwin test: Cyanosis / Irwin test: Exolphthalmos / Irwin test: Flush / Irwin test: Lacrimation / Irwin test: Pallor / Irwin test: Piloerection / Irwin test: Salivation / Irwin test: Writhing / Irwin test: Palpebral opening / Irwin test: Hypo-hyperthermia: Autonomic signes; for Irwin test: Cyanosis / Irwin test: Exolphthalmos / Irwin test: Flush / Irwin test: Lacrimation / Irwin test: Pallor / Irwin test: Piloerection / Irwin test: Salivation / Irwin test: Writhing / Irwin test: Passivity / Irwin test: Vocalization / Irwin test: Ataxia / Irwin test: Stereotipies / Irwin test: Straub tail / Irwin test: Tremors / Irwin test: Delayed death (48 h) / Irwin test: Immediate death: limits 0 - 4; for Irwin test: Palpebral opening / Irwin test: Cleaning / Irwin test: Curiosity / Irwin test: Reactivity / Irwin test: Spontaneous activity / Irwin test: Straightening reflex / Irwin test: Palpebral reflex / Irwin test: Convulsions: limits 4 - 0; for Irwin test: Hypo-hyperthermia: limits -4/+4; for Irwin test: Passivity / Irwin test: Vocalization / Irwin test: Cleaning / Irwin test: Curiosity / Irwin test: Reactivity / Irwin test: Spontaneous activity: Behaviour; for Irwin test: Ataxia / Irwin test: Stereotipies / Irwin test: Straightening reflex: Movement; for Irwin test: Physical strenght: Muscolar tone, limits 4 – 0; for Irwin test: Palpebral reflex: Reflexes; for Irwin test: Straub tail / Irwin test: Tremors / Irwin test: Convulsions: S.N.C. excitement; for Irwin test: Delayed death (48 h) / Irwin test: Immediate death: Toxicity
Method: Toxicity was evaluated after a single acute administration of 26, 29, 30, and 31 at 30 mg/kg. […] For the Irwin test, each rat was individually placed in a transparent cage (26 × 41 cm), and 26 neurobehavioral or physiological parameters were systematically assessed according to Irwin (1968)[55] and already reported by Berrino and colleagues in similar studies.[30] Behavioral, autonomic, and neurological manifestations produced by compound administration in rats were evaluated: motor displacement, motor reflexes, stereotypies, grooming, reaction to painful or environmental stimuli (analgesia and irritability), startle response, secretions, excretions, respiratory movements, skin color and temperature, piloerection, exophthalmos, eyelid and corneal reflexes, muscle tone, ataxia, tremors, head twitches, jumps, convulsions, Straub tail, and other signs or symptoms. For postural reflexes (righting reflex) and other signs such as piloerection, exophthalmia (exaggerated protrusion of the eyeball), ataxia, tremors, and Straub tail, only presence or absence was recorded. Skin color was evaluated qualitatively (pale, red, or purple); other signs were evaluated semiquantitatively, according to the observer’s personal scale (0 to +4, −4 to 0, or −4 to +4). The terms sedation and excitation express the final interpretation of a group of signs: reduced motor activity, reduced startle response, eyelid ptosis, and reduced response to manual manipulation, for the former; and increased motor activity, increased startle response, increased response to manual manipulation, and exophthalmia, for the latter. Hyperactivity includes running, jumping, and attempting to escape from the container. Trained observers were not informed about the specific treatment of each animal group carried out in this test.

hCA IX = hCA IX (Homo sapiens, UniProt Q16790); assay: Stopped-flow CO2 hydrase assay, hCA IX; conditions: selectivity index, ratio of KIs
Method: as §3

hCA XII = hCA XII (Homo sapiens, UniProt O43570); assay: Stopped-flow CO2 hydrase assay, hCA XII; conditions: selectivity index, ratio of KIs
Chain of hCA XII (O43570 25-354): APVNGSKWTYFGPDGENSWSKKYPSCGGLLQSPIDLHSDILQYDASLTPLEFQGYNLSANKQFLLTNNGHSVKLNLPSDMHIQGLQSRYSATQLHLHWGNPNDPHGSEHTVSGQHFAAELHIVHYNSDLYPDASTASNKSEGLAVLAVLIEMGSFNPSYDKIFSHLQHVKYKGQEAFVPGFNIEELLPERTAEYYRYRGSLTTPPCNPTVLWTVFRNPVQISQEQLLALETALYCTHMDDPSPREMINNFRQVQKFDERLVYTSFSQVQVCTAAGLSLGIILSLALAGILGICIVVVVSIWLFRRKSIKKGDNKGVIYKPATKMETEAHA
Method: as §3

Chain of hCA IV (P22748 19-312): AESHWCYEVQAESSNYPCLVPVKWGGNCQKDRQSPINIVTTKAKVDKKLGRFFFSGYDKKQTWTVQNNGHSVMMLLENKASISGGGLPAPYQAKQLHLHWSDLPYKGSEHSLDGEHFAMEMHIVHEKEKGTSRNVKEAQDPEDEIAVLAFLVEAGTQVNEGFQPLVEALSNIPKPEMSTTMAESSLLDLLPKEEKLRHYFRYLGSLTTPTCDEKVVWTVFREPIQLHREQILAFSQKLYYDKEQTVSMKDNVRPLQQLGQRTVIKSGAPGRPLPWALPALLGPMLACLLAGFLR

SMILES	SI CA I/IV (hCA IV)	SI CA II/IV (hCA IV)	reduction of spontaneous pain, Incapacitance test [2]	Irwin test: Cyanosis (rats)	Irwin test: Exolphthalmos (rats)	Irwin test: Flush (rats)	Irwin test: Lacrimation (rats)	Irwin test: Pallor (rats)	Irwin test: Piloerection (rats)	Irwin test: Salivation (rats)	Irwin test: Writhing (rats)	Irwin test: Palpebral opening (rats)	Irwin test: Hypo-hyperthermia (rats)	Irwin test: Passivity (rats)	Irwin test: Vocalization (rats)	Irwin test: Cleaning (rats)	Irwin test: Curiosity (rats)	Irwin test: Reactivity (rats)	Irwin test: Spontaneous activity (rats)	Irwin test: Ataxia (rats)	further results
CSc1ccc(CN(CCc2ccc(S(N)(=O)=O)cc2)C(=O)c2ccc(-c3cssc3=S)cc2)cc1 [Compound 29, N-(4-(Methylthio)benzyl)-N-(4-sulfamoylphenethyl)-4-(3-thioxo-3H-1,2-dithiol-4-yl)benzamide]	17.9	23.9	reduced spontaneous pain in a dose-dependent manner	0	0	0	0	0	0	0	0	4	0	0	0	0	4	4	4	0	antihyperalgesic effect, Paw pressure test, 1 mg/kg [1]: ineffective; weight tolerated on the ipsilateral paw, Paw pressure test, 10 and 30 mg/kg [1]: significantly increased the weight tolerated; Irwin test: Stereotipies (rats): 0; Irwin test: Straightening reflex (rats): 4; Irwin test: Physical strenght (rats): 4; Irwin test: Palpebral reflex (rats): 4; Irwin test: Straub tail (rats): 0; Irwin test: Tremors (rats): 0; Irwin test: Convulsions (rats): 0; Irwin test: Delayed death (48 h) (rats): 0; Irwin test: Immediate death (rats): 0; SI CA I/IX (hCA IX): 156; SI CA II/IX (hCA IX): 209; SI CA I/XII (hCA XII): 858; SI CA II/XII (hCA XII): 1148
COc1cc([N+](=O)[O-])ccc1CN(CCc1ccc(S(N)(=O)=O)cc1)C(=O)c1ccc(-c2cssc2=S)cc1 [Compound 26, N-(2-Methoxy-4-nitrobenzyl)-N-(4-sulfamoylphenethyl)-4-(3-thioxo-3H-1,2-dithiol-4-yl)benzamide]	1.6	0.7	reduced spontaneous pain in a dose-dependent manner	0	0	0	0	0	0	0	0	4	0	0	0	0	4	4	4	0	antihyperalgesic effect, Paw pressure test, 30 mg/kg ([1]; 30 mg/kg per os, day 14 after CFA): completely reverted the pain state 45 min after administration; also recorded: counteracted the mechanical hyperalgesia 45 min after injection; also recorded: completely reverting pain 45 min after treatment; antihypersensitivity effect, Paw pressure test ([1]; single per os, 1 to 30 mg/kg, day 14 after CFA): evoked an antihypersensitivity effect in a dose-dependent manner; antihyperalgesic action at 45 min, Incapacitance test ([2]; per os, 45 min after treatment): almost completely reverting spontaneous pain after 45 min; also recorded: completely reverting pain 45 min after treatment; Irwin test: Stereotipies (rats): 0; Irwin test: Straightening reflex (rats): 4; Irwin test: Physical strenght (rats): 4; Irwin test: Palpebral reflex (rats): 4; Irwin test: Straub tail (rats): 0; Irwin test: Tremors (rats): 0; Irwin test: Convulsions (rats): 0; Irwin test: Delayed death (48 h) (rats): 0; Irwin test: Immediate death (rats): 0; SI CA I/IX (hCA IX): 1633; SI CA II/IX (hCA IX): 719; SI CA I/XII (hCA XII): 870; SI CA II/XII (hCA XII): 383
NS(=O)(=O)c1ccc(CCN(Cc2csc3ccccc23)C(=O)c2ccc(-c3cssc3=S)cc2)cc1 [Compound 31, N-(Benzo[b]thiophen-3-ylmethyl)-N-(4-sulfamoylphenethyl)-4-(3-thioxo-3H-1,2-dithiol-4-yl)benzamide]	>208	52 and 51.7	reduced spontaneous pain in a dose-dependent manner	0	0	0	0	0	0	0	0	4	0	0	0	0	4	4	4	0	antihyperalgesic effect, Paw pressure test, 1 mg/kg [1]: ineffective; weight tolerated on the ipsilateral paw, Paw pressure test, 10 and 30 mg/kg [1]: significantly increased the weight tolerated; Irwin test: Stereotipies (rats): 0; Irwin test: Straightening reflex (rats): 4; Irwin test: Physical strenght (rats): 4; Irwin test: Palpebral reflex (rats): 4; Irwin test: Straub tail (rats): 0; Irwin test: Tremors (rats): 0; Irwin test: Convulsions (rats): 0; Irwin test: Delayed death (48 h) (rats): 0; Irwin test: Immediate death (rats): 0; SI CA I/IX (hCA IX): >4167; SI CA I/XII (hCA XII): >1204; SI CA II/XII (hCA XII): 299
